Experimental data: publication PMC11191877, “Discovery of new Schiff bases of the disalicylic acid scaffold as DNA gyrase and topoisomerase IV inhibitors endowed with antibacterial properties” (Frontiers in Chemistry, 2024)
Values after ≈ are worked out from the molar mass of the structure shown.

How the values were obtained:
Staphylococcus aureus = experiment: MIC, twofold serial dilution, 96-well microtiter plate; assay type: cell-based; conditions: Staphylococcus aureus (G+)
Procedure: (§1) The antibacterial activity of compounds 5f, 5h, 5i, and 5k were evaluated using a twofold serial dilution method ([Parasa et al., 2011]), with ciprofloxacin as the reference compound. The MIC values for certain compounds were obtained through dose-response experiments. The stated values are based on a minimum of two independent experiments, with three replicates per concentration in each experiment. The experimental details can be found in Appendix A (Supplementary Material). […]
(§2) 4.2.2. Minimum inhibitory concentration assay
(§3) In 96-well microtiter plates and […] of fresh bacterial culture of a single McFarland unit overnight, a double serial dilution of each compound […] in sterile standard saline were prepared to every single source well. Ciprofloxacin antibiotic (5 mg / mL - 1) and normal saline were included as standard reference in each assay. The plates were incubated at 37 0C overnight. As an indicator of bacterial growth, […] of p-iodonitrotetrazolium violet (INT) was added to each well and incubated at 37 0C for 30 […]
(§4) min. MIC values are recorded as the lowest concentration of the extract that completely inhibited bacterial growth that is clear well. The colorless tetrazolidium salt acts as an electron accepter and is reduced to a red colored formazan product by biological activity organisms. Where bacterial growth was inhibited, the solution in the well remained clear after incubation with INT. […]
(§5) SybrGOLD in T10 buffer (10 mM Tris HCl with pH 8.0 and 1 mM EDTA) was added. […]

Bacillus subtilis [1] = experiment: as above; assay type: cell-based; conditions: Bacillus subtilis (G+)
Procedure: as §1, §2, §3, §4, §5

Escherichia Coli [2] = experiment: as above; assay type: cell-based; conditions: Escherichia coli (G−)
Procedure: as §1, §2, §3, §4, §5

Pseudomonas aeruginosa [3] = experiment: as above; assay type: cell-based; conditions: Pseudomonas aeruginosa (G−)
Procedure: as §1, §2, §3, §4, §5

Staph. aureus = experiment: Modified Kirby-Bauer disc diffusion; assay type: cell-based, Staphylococcus aureus; conditions: Staph. aureus (G+)
Procedure: (§6) The antimicrobial activity of compounds 5a-k was assessed using a modified Kirby-Bauer disc diffusion method ([Alkhaldi et al., 2019]; [Al-Wahaibi et al., 2021b]; [Manso et al., 2021]; [Ecevit et al., 2022]). […] Ciprofloxacin was used as a reference medication. […] Compounds 5f-k had promising antibacterial action against Gram-positive and Gram-negative bacteria, ranging from 75% to 115% of typical ciprofloxacin levels. […]
(§7) incubated at 35-37 °C for 24-48 hours and yeast as Candida albicans (ATCC 7102) incubated at 30 °C for 24-48 hours and, then the diameters of the inhibition zones were measured in millimeters. Standard discs of ciprofloxacin (Antibacterial agent), Fluconazole (Antifungal agent) served as positive controls for antimicrobial activity but filter discs impregnated with 10 µl of solvent (distilled water, chloroform, DMSO) were used as a negative control. Blank paper disks (Schleicher & Schuell, Spain) with a diameter of 8.0 mm were impregnated 10µ of tested concentration of the stock solutions. When a filter paper disc impregnated with a tested chemical is placed on agar the chemical will diffuse from the disc into the agar. This diffusion will place the chemical in the agar only around the disc. The solubility of the chemical and its molecular size will determine the size of the area of chemical infiltration around the disc. If an organism is placed on the agar it will not grow in the area around the disc if it is susceptible to the chemical. This area of no growth around the disc is known as a “Zone of inhibition” or" Clear zone". For the disc diffusion, the zone diameters were measured with slipping calipers of the National Committee for Clinical Laboratory […]
(§8) Agar-based methods such as E-test and disk diffusion can be good alternatives because they are simpler and faster than broth-based methods. […]

Candida albicans = experiment: Modified Kirby-Bauer disc diffusion (antifungal); assay type: cell-based
Procedure: (§9) The antimicrobial activity of compounds 5a-k was assessed using a modified Kirby-Bauer disc diffusion method ([Alkhaldi et al., 2019]; [Al-Wahaibi et al., 2021b]; [Manso et al., 2021]; [Ecevit et al., 2022]). […] Ciprofloxacin was used as a reference medication. […] Compounds 5f-k had promising antibacterial action against Gram-positive and Gram-negative bacteria, ranging from 75% to 115% of typical ciprofloxacin levels.
(§10) In addition, the synthesized compounds 5a-k were evaluated for their antifungal activity against A. flavus and C. albicans, with Fluconazole as a reference medication (Table 1). […]
as §7, §8

Aspergillus flavus = experiment: Modified Kirby-Bauer disc diffusion (antifungal); assay type: cell-based; conditions: Aspergillus flavus (fungi)
Procedure: as §9, §10
Standard discs of ciprofloxacin (Antibacterial agent), Fluconazole (Antifungal agent) served as positive controls for antimicrobial activity but filter discs impregnated with 10 µl of solvent (distilled water, chloroform, DMSO) were used as a negative control. Blank paper disks (Schleicher & Schuell, Spain) with a diameter of 8.0 mm were impregnated 10µ of tested concentration of the stock solutions. When a filter paper disc impregnated with a tested chemical is placed on agar the chemical will diffuse from the disc into the agar. This diffusion will place the chemical in the agar only around the disc. The solubility of the chemical and its molecular size will determine the size of the area of chemical infiltration around the disc. If an organism is placed on the agar it will not grow in the area around the disc if it is susceptible to the chemical. This area of no growth around the disc is known as a “Zone of inhibition” or" Clear zone". For the disc diffusion, the zone diameters were measured with slipping calipers of the National Committee for Clinical Laboratory […]
as §8

E. coli DNA gyrase = biological target: T1, E. coli DNA gyrase (Escherichia coli, UniProt P0AES6); experiment: E. coli DNA gyrase supercoiling assay (Inspiralis kit); assay type: biochemical; conditions: at 1 µM of the compound
T1 construct: purchased Inspiralis
Procedure: The fluorescence was measured with a microplate reader (BioTek Synergy H4,
(§11) NaCl and 50 mM MgCl2) was added to terminate the enzymatic reaction. After
(§12) Initial screening was done at 100 or 10 μM concentration

E. coli topoisomerase IV = biological target: T2, E. coli topoisomerase IV (Escherichia coli, UniProt P20083); experiment: E. coli topoisomerase IV inhibitory assay (Inspiralis kit); assay type: biochemical; conditions: at 1 µM of the compound
T2 construct: purchased Inspiralis
Procedure: as §11, §12
A single compound was designated with four wells followed by incubation of
After incubation, medium was removed completely from the […]

Bacillus subtilis [4] = experiment: Modified Kirby-Bauer disc diffusion; assay type: cell-based; conditions: Bacillus subtilis (G+)
Procedure: as §6, §7, §8

Escherichia Coli [5] = experiment: Modified Kirby-Bauer disc diffusion; assay type: cell-based; conditions: Escherichia Coli (G−)
Procedure: as §6, §7, §8

Pseudomonas aeruginosa [6] = experiment: Modified Kirby-Bauer disc diffusion; assay type: cell-based; conditions: Pseudomonas aeruginosa (G−)
Procedure: as §6, §7, §8

J774 macrophages = tested on: J774 macrophages; set-up: method as in Souza et al., 2007; conditions: ref Souza et al., 2007, cited from earlier work
[7] = tested on: Mycobacterium tuberculosis H37Rv; set-up: method as in Souza et al., 2007; conditions: ref Souza et al., 2007; cited from earlier work

T2 sequence (P20083 whole entry): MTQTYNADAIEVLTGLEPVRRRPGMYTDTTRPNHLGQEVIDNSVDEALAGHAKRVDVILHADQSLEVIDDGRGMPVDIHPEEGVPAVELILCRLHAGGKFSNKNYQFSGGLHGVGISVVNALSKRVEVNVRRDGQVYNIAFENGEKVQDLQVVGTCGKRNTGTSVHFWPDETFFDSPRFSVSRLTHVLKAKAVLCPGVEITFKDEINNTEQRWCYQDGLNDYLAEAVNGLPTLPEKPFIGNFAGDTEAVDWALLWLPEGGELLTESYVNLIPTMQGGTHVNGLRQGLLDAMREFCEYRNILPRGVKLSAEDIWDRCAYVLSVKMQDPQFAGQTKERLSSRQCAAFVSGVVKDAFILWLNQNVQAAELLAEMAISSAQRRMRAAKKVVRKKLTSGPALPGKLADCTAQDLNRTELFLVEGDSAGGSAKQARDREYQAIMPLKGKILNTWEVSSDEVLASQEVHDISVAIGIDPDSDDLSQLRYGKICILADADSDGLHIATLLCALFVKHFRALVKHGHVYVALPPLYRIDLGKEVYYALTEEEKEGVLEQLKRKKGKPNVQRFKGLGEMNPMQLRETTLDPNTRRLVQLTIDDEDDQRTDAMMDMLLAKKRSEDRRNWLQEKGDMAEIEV
T2 sequence (P0AFI2 whole entry, further chain): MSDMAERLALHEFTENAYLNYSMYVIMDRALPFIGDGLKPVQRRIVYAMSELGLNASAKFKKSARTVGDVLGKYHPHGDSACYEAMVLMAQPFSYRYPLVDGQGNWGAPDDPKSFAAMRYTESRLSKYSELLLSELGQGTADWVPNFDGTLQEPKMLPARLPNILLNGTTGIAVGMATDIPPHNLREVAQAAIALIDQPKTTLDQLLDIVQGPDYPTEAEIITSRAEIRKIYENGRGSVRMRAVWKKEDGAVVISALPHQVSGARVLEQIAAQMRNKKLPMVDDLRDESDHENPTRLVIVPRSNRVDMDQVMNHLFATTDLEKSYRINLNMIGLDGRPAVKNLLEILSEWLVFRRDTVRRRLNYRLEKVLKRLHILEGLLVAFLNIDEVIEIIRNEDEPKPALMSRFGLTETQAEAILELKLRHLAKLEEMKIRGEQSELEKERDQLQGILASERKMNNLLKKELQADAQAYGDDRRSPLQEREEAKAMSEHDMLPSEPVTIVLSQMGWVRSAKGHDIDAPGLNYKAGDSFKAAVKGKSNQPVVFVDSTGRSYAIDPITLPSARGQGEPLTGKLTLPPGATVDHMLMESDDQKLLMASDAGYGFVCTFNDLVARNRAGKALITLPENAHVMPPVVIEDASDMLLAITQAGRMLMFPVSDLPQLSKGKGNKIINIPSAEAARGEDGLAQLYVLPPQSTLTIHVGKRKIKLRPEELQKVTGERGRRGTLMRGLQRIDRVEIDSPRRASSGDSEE

Compound | Minimum inhibitory concentration (MIC) (Staphylococcus aureus) | Minimum inhibitory concentration (MIC) (Bacillus subtilis [1]) | Minimum inhibitory concentration (MIC) (Escherichia Coli [2]) | Minimum inhibitory concentration (MIC) (Pseudomonas aeruginosa [3]) | Inhibition zone diameter (Staph. aureus) | activity as % of fluconazole (Candida albicans; C. albicans) | Inhibition zone diameter (Candida albicans; Candida albicans (fungi)) | Inhibition zone diameter (Aspergillus flavus) | RA (residual activity of the enzyme) E. Coli DNA gyrase (E. coli DNA gyrase) | RA (residual activity of the enzyme) E. Coli Topo IV (E. coli topoisomerase IV) | Inhibition zone diameter (Bacillus subtilis [4]) | Inhibition zone diameter (Escherichia Coli [5]) | Inhibition zone diameter (Pseudomonas aeruginosa [6]) | cytotoxic effects on J774 macrophages (J774 macrophages; 1,000 μg/mL) | viable macrophage cells (J774 macrophages; J774 macrophages, 1,000 μg/mL) | MIC [7]
N'-((E)-4-Methylbenzylidene)-4-(4-(2-((Z)-4-methylbenzylidene)hydrazine-1-carbonyl)-3-hydroxybenzyl)-2-hydroxybenzohydrazide [Compound 5f] | 0.070 µg/mL | 0.125 µg/mL | 0.125 µg/mL | 0.125 µg/mL | 37 mm/mg Sample | 38% | 15 mm/mg Sample | 0.0 mm/mg Sample | 53% | 77% | 37 mm/mg Sample | 33 mm/mg Sample | 33 mm/mg Sample | – | – | –
Oc1ccccc1C=Nc1ccccc1O [I, N-(salicylidene)-2-hydroxyaniline] | – | – | – | – | – | – | – | – | – | – | – | – | – | did not show cytotoxic effects | Over 80% | 8 µg/mL (≈ 37.5 µM)
